The target of this experiment is T1, Enoyl-[acyl-carrier-protein] reductase [NADH] (Francisella tularensis subsp. tularensis (strain SCHU S4 / Schu 4), UniProt Q5NGQ3).
T1 sequence (Q5NGQ3 whole entry): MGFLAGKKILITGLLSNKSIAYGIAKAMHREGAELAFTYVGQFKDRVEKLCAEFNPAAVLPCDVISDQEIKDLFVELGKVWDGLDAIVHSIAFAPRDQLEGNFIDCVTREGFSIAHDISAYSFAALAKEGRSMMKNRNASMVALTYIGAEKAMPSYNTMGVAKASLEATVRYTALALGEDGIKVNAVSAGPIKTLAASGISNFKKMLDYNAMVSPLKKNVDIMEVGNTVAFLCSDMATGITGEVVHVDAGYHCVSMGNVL

As a reminder, the Ki is a measure of affinity in units of concentration, obtained from inhibition or displacement. For the compound `Cc1cc2ncn(Cc3ccc(Cl)c(Cl)c3)c2cc1C`, the Ki stood at 360 nM.

These data come from ChEMBL document CHEMBL2151032, “Structural and enzymatic analyses reveal the binding mode of a novel series of Francisella tularensis enoyl reductase (FabI) inhibitors” (J Med Chem, 2012).
